Assay results published in patent US8927579B2, “Male contraceptive” (priority 2007, dated 2015).
Structures can show the parent of a compound that is named as a salt.

Assays:
[1] = tested on: longitudinal muscle of human vas deferens; assay: New molecules against contractions to high K+ (120 mM), longitudinal muscle; settings: for IC50: Homo sapiens, contractions evoked by K+ (120 mM), preliminary data, mean, n=2-3, read-out: Functional inhibitory potencies (IC50 values), Longitudinal muscle; for Selectivity [(C/L)-1]: longitudinal muscle selectivity from IC50 values in circular and longitudinal muscle, K+ (120 mM)
Source text: (§1) Human vas deferens specimens were obtained after elective vasectomies of healthy fertile men. College ethical approval and the consent of patients were obtained. The specimens were placed in ice-cold Krebs' medium, dissected-free of connective tissue/blood vessels and cut longitudinally into strips (longitudinal muscle preparations; 5-8 mm long & 1 mm wide) or transversely into rings (circular muscle preparations; ˜3 mm in length). The longitudinal and circular muscle preparations were then set up for tension recording (resting tension 5-7 mN) in a Perspex chamber superfused at 2 ml per min with Krebs' medium (36° C.) composed of (mM): NaCl, 118.8; NaHCO3, 25; KCl, 4.7; CaCl2.2H2O, 2.5; KH2PO4, 1.2; MgSO4.7H2O, 1.2; glucose, 11.1; ascorbic acid 0.1 and continuously gassed with 95% O2 and 5% CO2. Contractile responses were recorded via a Harvard type force-displacement transducer. The analog signals were digitised using CIO-Das 16/Jr data acquisition software (Amplicon Liveline, Brighton, UK) and re-plotted on a microcomputer.
(§2) Tissues were equilibrated for 180 min in Krebs' medium containing inhibitors of extraneuronal and neuronal reuptake of noradrenaline, oestradiol (1 μM) and desipramine (0.1 μM) respectively, inhibitors of catechol-O-methyltransferase and monoamine oxidase, tropolone (10 μM) and iproniazid (10 μM) respectively and the β-adrenoceptor blocker, propranolol (1 μM). At the end of the equilibration period, the tissues were stimulated with noradrenaline (100 μM). […] After 40-45 min in this medium the tissues were stimulated with high [K^+]O (120 mM, Initial response). This was followed by exposure to cumulative concentrations of the new molecules {NIBA(1)XC1, NIBA(14)XN10, NIBA(6)XN3, NIBA(2)XC2, NIBA(53)XN16} or to Krebs' medium containing drug vehicles (time-matched controls). After contact times of 40-60 min at each drug concentration, the tissues were stimulated with high [K^+]o (120 mM). The resulting contractions were measured using computer software developed in-house to measure the total response (i.e. rhythmic activity plus tonic contraction). Contractions obtained in the presence of the new drug molecules were expressed as a percentage of the initial contraction evoked by high [K^+]o (120 mM) before exposure to the drugs.

[2] = tested on: circular muscle of human vas deferens; assay: New molecules against contractions to high K+ (120 mM), circular muscle; settings: contractions evoked by K+ (120 mM), preliminary data, mean, n=2-3, read-out: Functional inhibitory potencies (IC50 values), Circular muscle
Source text: as §1, §2

[3] = tested on: sperm emission in patients; settings: cited from earlier work
[4] = tested on: longitudinal muscle of human vas deferens; assay: IC50 against contractions evoked by high K+ (120 mM) in the presence of FPL 64176, longitudinal muscle strips; settings: contractions evoked by K+ (120 mM) in the presence of FPL 64176 (1 μM), means ± S.E.M.
Source text: as §1, with “5-10” for “5-8”, “3” for “˜3”, “Harvard-type” for “Harvard type”
(§3) Tissues were equilibrated for 180 min in Krebs' medium containing inhibitors of extraneuronal and neuronal reuptake of noradrenaline, oestradiol (1 μM) and desipramine (0.1 μM) respectively, inhibitors of catechol-O-methyltransferase and monoamine oxidase, tropolone (10 μM) and iproniazid (10 μM) respectively and the β-adrenoceptor blocker, propranolol (1 μM). At the end of the equilibration period, the tissues were stimulated with noradrenaline (100 μM). […] After a contact time of 30-40 min in this medium, different experimental protocols (described below) were adopted in order to • (a) Elucidate the contractile actions of L-type Ca^2+ agonists such as FPL 64176 or Bay K 8644. In these experiments, tissues were exposed to FPL 64176 (0.1-10 μM added cumulatively) or in separate experiments Bay K 8644 (0.1-10 μM added cumulatively). • (b) Investigate the effects of various diphenylalkylamines and conventional L-type Ca^2+ antagonists (methoxyverapamil or nifedipine) on contractions evoked by high concentrations of extracellular potassium (high [K^+]o) in the presence of L-type Ca^2+ agonists, FPL 64176 (1 μM) or Bay K 8644 (1 μM). In this protocol, tissues were stimulated with high [K^+]O (10, 30 and 120 mM at 10-15 min intervals) in normal Krebs' medium, then exposed to L-type Ca^2+ agonists for 20-30 min and subsequently stimulated with high [K^+]O (10, 30 and 120 mM) in the presence of the drugs. These provided the initial responses. Following this and in the continuous presence of the L-type Ca^2+ agonists, the tissues were exposed additionally to L-type Ca^2+ antagonists (conventional or diphenylalkylamines) or drug-free vehicle medium. After contact times of 25-50 min the tissues were stimulated, first with high [K^+]O (either 30 mM or 120 mM) in order to take account of the well-documented use-dependent action of the diphenylalkylamine Ca^2+ antagonists. Following recovery from the test contraction and after a further 30-40 min, the tissues were then stimulated with high [K^+]o (10, 30 and 120 mM). This protocol is illustrated in FIGS. 3 and 4. The resulting contractions were measured (see below) and expressed as a percentage of corresponding initial responses to high [K^+]o evoked in the presence of L-type Ca^2+ agonists (i.e. before exposure to L-type Ca^2+ antagonists). […] Subsequent analysis (see below) was between contractions of drug-treated tissues and time-matched controls • (c) Determine the inhibitory potencies (IC50 values) of various diphenylalkylamines and phenothiazines and conventional L-type Ca^2+ antagonists (nifedipine and methoxyverapamil) against contractions evoked in longitudinal and circular muscle of human vas deferens by high [K^+]o (120 mM) in the presence of FPL 64176. In these experiments, tissues were stimulated with high [K^+]o (120 mM); sequentially in normal Krebs' medium and after 25-30 min exposure to the L-type Ca^2+ agonist, FPL 64176, (1 μM, Initial response). […]

[5] = tested on: circular muscle of human vas deferens; assay: IC50 against contractions evoked by high K+ (120 mM) in the presence of FPL 64176, circular muscle rings; settings: contractions evoked by K+ (120 mM) in the presence of FPL 64176 (1 μM), means ± S.E.M.
Source text: as §1, with “5-10” for “5-8”, “3” for “˜3”, “Harvard-type” for “Harvard type”
as §3

[6] = tested on: longitudinal muscle of human vas deferens; assay: Inhibition at fixed concentration of contractions evoked by high K+ in the presence of FPL 64176, longitudinal muscle; settings: [K+]o 120 mM in the presence of FPL 64176
Source text: as §1, with “5-10” for “5-8”, “3” for “˜3”, “Harvard-type” for “Harvard type”
Tissues were equilibrated for 180 min in Krebs' medium containing inhibitors of extraneuronal and neuronal reuptake of noradrenaline, oestradiol (1 μM) and desipramine (0.1 μM) respectively, inhibitors of catechol-O-methyltransferase and monoamine oxidase, tropolone (10 μM) and iproniazid (10 μM) respectively and the β-adrenoceptor blocker, propranolol (1 μM). At the end of the equilibration period, the tissues were stimulated with noradrenaline (100 μM). […] After a contact time of 30-40 min in this medium, different experimental protocols (described below) were adopted in order to • (a) Elucidate the contractile actions of L-type Ca^2+ agonists such as FPL 64176 or Bay K 8644. In these experiments, tissues were exposed to FPL 64176 (0.1-10 μM added cumulatively) or in separate experiments Bay K 8644 (0.1-10 μM added cumulatively). • (b) Investigate the effects of various diphenylalkylamines and conventional L-type Ca^2+ antagonists (methoxyverapamil or nifedipine) on contractions evoked by high concentrations of extracellular potassium (high [K^+]o) in the presence of L-type Ca^2+ agonists, FPL 64176 (1 μM) or Bay K 8644 (1 μM). In this protocol, tissues were stimulated with high [K^+]O (10, 30 and 120 mM at 10-15 min intervals) in normal Krebs' medium, then exposed to L-type Ca^2+ agonists for 20-30 min and subsequently stimulated with high [K^+]O (10, 30 and 120 mM) in the presence of the drugs. These provided the initial responses. […] The resulting contractions were measured (see below) and expressed as a percentage of corresponding initial responses to high [K^+]o evoked in the presence of L-type Ca^2+ agonists (i.e. before exposure to L-type Ca^2+ antagonists). […]

[7] = tested on: circular muscle of human vas deferens; assay: Inhibition at fixed concentration of contractions evoked by high K+ in the presence of FPL 64176, circular muscle; settings: [K+]o 120 mM in the presence of FPL 64176
Source text: as §1, with “5-10” for “5-8”, “3” for “˜3”, “Harvard-type” for “Harvard type”
Tissues were equilibrated for 180 min in Krebs' medium containing inhibitors of extraneuronal and neuronal reuptake of noradrenaline, oestradiol (1 μM) and desipramine (0.1 μM) respectively, inhibitors of catechol-O-methyltransferase and monoamine oxidase, tropolone (10 μM) and iproniazid (10 μM) respectively and the β-adrenoceptor blocker, propranolol (1 μM). At the end of the equilibration period, the tissues were stimulated with noradrenaline (100 μM). […] After a contact time of 30-40 min in this medium, different experimental protocols (described below) were adopted in order to • (a) Elucidate the contractile actions of L-type Ca^2+ agonists such as FPL 64176 or Bay K 8644. In these experiments, tissues were exposed to FPL 64176 (0.1-10 μM added cumulatively) or in separate experiments Bay K 8644 (0.1-10 μM added cumulatively). • (b) Investigate the effects of various diphenylalkylamines and conventional L-type Ca^2+ antagonists (methoxyverapamil or nifedipine) on contractions evoked by high concentrations of extracellular potassium (high [K^+]o) in the presence of L-type Ca^2+ agonists, FPL 64176 (1 μM) or Bay K 8644 (1 μM). In this protocol, tissues were stimulated with high [K^+]O (10, 30 and 120 mM at 10-15 min intervals) in normal Krebs' medium, then exposed to L-type Ca^2+ agonists for 20-30 min and subsequently stimulated with high [K^+]O (10, 30 and 120 mM) in the presence of the drugs. These provided the initial responses. Following this and in the continuous presence of the L-type Ca^2+ agonists, the tissues were exposed additionally to L-type Ca^2+ antagonists (conventional or diphenylalkylamines) or drug-free vehicle medium. After contact times of 25-50 min the tissues were stimulated, first with high [K^+]O (either 30 mM or 120 mM) in order to take account of the well-documented use-dependent action of the diphenylalkylamine Ca^2+ antagonists. Following recovery from the test contraction and after a further 30-40 min, the tissues were then stimulated with high [K^+]o (10, 30 and 120 mM). This protocol is illustrated in FIGS. 3 and 4. The resulting contractions were measured (see below) and expressed as a percentage of corresponding initial responses to high [K^+]o evoked in the presence of L-type Ca^2+ agonists (i.e. before exposure to L-type Ca^2+ antagonists). […]

## CC(NCCN(c1ccccc1)c1ccccc1)c1ccccc1 (centres unmarked) [NIBA(14)XN10]
[1]
  IC50: 15 µM
  Selectivity [(C/L)-1]: 5.1
[1]; contractions evoked by high [K+]o
  relative effectiveness against longitudinal and circular muscle contractions: more effective against longitudinal than circular muscle contractions
[2]
  IC50: 91 µM

## CN1CCCC1CCN(c1ccccc1)c1ccccc1 (centres unmarked) [NIBA(53)XN16]
[1]
  IC50: 4.5 µM
  Selectivity [(C/L)-1]: 1.4
[2]
  IC50: 11 µM

## CC(COc1ccccc1)N(CCCl)Cc1ccccc1 (centres unmarked) [PBZ, phenoxybenzamine]
[3]; clinical studies
  effect on sperm emission (contraceptive side effect): reversibly inhibit sperm emission
  effects on libido, erection, orgasmic sensation, blood pressure, hormonal balance: without effects on libido, penile erection, orgasmic sensation and more importantly blood pressure or hormonal balance

## O=c1[nH]c2ccccc2n1C1CCN(CCCC(c2ccc(F)cc2)c2ccc(F)cc2)CC1 [Pimozide, pimozide]
[4]; Homo sapiens
  IC50: 4.4 ± 0.6 µM
[5]; Homo sapiens
  IC50: 8.9 ± 3.1 µM
[6]; Homo sapiens, drug 10 μM
  inhibition at 10 µM: 71%
[7]; Homo sapiens, drug 10 μM
  inhibition at 10 µM: 55%

## CN1CCCCC1CCN1c2ccccc2Sc2ccc(S(C)(=O)=O)cc21 (centres unmarked) [Sulphoridazine, sulphoridazine]
[4]
  IC50: 15.9 ± 2.9 µM
[5]
  IC50: 14.1 ± 4.9 µM

## CSc1ccc2c(c1)N(CCC1CCCCN1C)c1ccccc1S2 (centres unmarked) [Thioridazine, thioridazine hydrochloride]
[3]; even at sub therapeutic doses
  time to inhibition of sperm emission after drug administration: ≤ 24 h

## CN1CCN(CCCN2c3ccccc3Sc3ccc(C(F)(F)F)cc32)CC1 [Trifluoperazine, trifluoperazine dihydrochloride]
[4]; Homo sapiens
  IC50: 20.7 ± 5.4 µM
[5]; Homo sapiens
  IC50: 10.2 ± 3 µM
[3]; clinical studies
  effect on sperm emission (contraceptive side effect): lack the contraceptive side-effect

## (−)-methoxyverapamil hydrochloride
[4]
  IC50: 0.016 ± 0.0009 µM
[5]
  IC50: 0.0181 ± 0.0038 µM
[6]; drug 1.0 μM
  inhibition of longitudinal muscle contractions: 93-98%
[7]; drug 1.0 μM
  inhibition of circular muscle contractions: 93-98%
